A word on the Km: it is the concentration of substrate that gives half-maximal velocity. Broadly, the kcat is the maximal rate divided by the concentration of active sites. By kcat/Km is commonly meant the second-order rate constant that governs catalysis at low substrate concentration.

This is an account of results in patent US11939583B2, “Method of producing autotrophic organisms with altered photorespiration and improved CO2 fixation” (Max-Planck-Gesellschaft zur Förderung der Wissenschaften …, priority 2018, dated 2024).

Data set [1] deals with T1, β-hydroxyaspartate aldolase (BHAA) (Paracoccus denitrificans, UniProt A1B8Z1).
T1 construct: His-tag (N); made in house; host or cells: E. coli BL21 AI
T1 sequence (A1B8Z1 1-387): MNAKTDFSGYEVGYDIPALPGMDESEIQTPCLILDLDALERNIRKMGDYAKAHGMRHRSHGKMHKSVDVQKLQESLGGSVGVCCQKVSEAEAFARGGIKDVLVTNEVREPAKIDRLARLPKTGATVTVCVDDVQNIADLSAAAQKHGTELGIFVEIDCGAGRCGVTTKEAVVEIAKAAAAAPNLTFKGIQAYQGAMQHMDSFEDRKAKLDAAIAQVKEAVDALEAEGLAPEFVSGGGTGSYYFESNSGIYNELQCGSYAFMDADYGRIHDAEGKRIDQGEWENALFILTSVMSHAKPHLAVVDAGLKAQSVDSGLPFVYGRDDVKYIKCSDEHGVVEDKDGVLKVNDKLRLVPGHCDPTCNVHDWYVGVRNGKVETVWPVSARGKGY
As to the kind of experiment: Enzyme assay, kinetic parameters of BHAA. In kind it is biochemical, Paracoccus denitrificans DSM 413. To be noted: 30° C., pH 7.5, glycine with 5 mM glyoxylate, glyoxylate with 20 mM glycine. The protocol: (§1) In all enzyme assays, the oxidation of NADH or NADPH was followed at 340 nm or 360 nm on a Cary 60 UV-Vis photospectrometer (Agilent, Santa Clara, USA) in quartz cuvettes with a path length of 1 mm or 10 mm (Hellma Optik GmbH, Jena, Germany).
The reaction mixture contained 100 mM potassium phosphate buffer pH 7.5, 0.1 mM PLP, 0.2 mM NADH, 0.5 mM MgCl2, varying amounts of the respective substrates, and 4 nM BHAA. BHAD and ISRed were added in excess as coupling enzymes. […] To determine the kinetic parameters with (2R,3S)-β-hydroxyaspartate as substrate, the same assay mixture was used and GhrA was added in excess as coupling enzyme to convert glyoxylate into glycolate. To determine the kinetic parameters with D-threonine as substrate, the same assay mixture was used and alcohol dehydrogenase from Saccharomyces cerevisiae (Sigma-Aldrich, St. Louis, USA) was added in excess as coupling enzyme to convert acetaldehyde into ethanol.

Data set [2] concerns the target T2, β-hydroxyaspartate dehydratase (BHAD) (Paracoccus denitrificans, UniProt A1B8Z2).
T2 construct: His-tag (N); made in house; host or cells: E. coli BL21 AI
As to the kind of experiment: Enzyme assay, kinetic parameters of BHAD. In kind it is biochemical, Paracoccus denitrificans DSM 413. To be noted: 30° C., pH 7.5, ISRed as coupling enzyme. The protocol: as §1
The enzyme assay to determine the kinetic parameters of BHAD was performed at 30° C. in a total volume of 300 μl. The reaction mixture contained 100 mM phosphate buffer pH 7.5, 0.1 mM PLP, 0.2 mM NADH, varying amounts of the substrate (2R,35)-β-hydroxyaspartate, and 29 nM BHAD. ISRed was added in excess as coupling enzyme to convert iminosuccinate into L-aspartate. (2R,3S)-β-Hydroxyaspartate was custom-synthesized by NewChem (Newcastle upon Tyne, United Kingdom), and was determined to be >95% pure by NMR analysis.

In data set [3] the target is T3, iminosuccinate reductase (ISRed) (Paracoccus denitrificans, UniProt A1B8Z0).
T3 construct: His-tag (N); made in house; host or cells: E. coli BL21 AI
As to the kind of experiment: Enzyme assay, apparent kinetic parameters of ISRed. The class given is biochemical, Paracoccus denitrificans DSM 413. To be noted: 30° C.; for Km: pH 7.5, cofactors measured with 2 mM (2R,3S)-β-hydroxyaspartate and BHAD, read-out: app. KM. The protocol:
as §1
The enzyme assay to determine the apparent kinetic parameters of ISRed was performed at 30° C. in a total volume of 250 μL. The reaction mixture contained 100 mM potassium phosphate buffer pH 7.5, 0.2 mM NADH, 0.1 mM PLP, varying amounts of (2R,3S)-β-hydroxyaspartate, and appropriate amounts of the enzymes BHAD and ISRed. Kinetics for iminosuccinate were measured with 15 nM ISRed, and appropriate amounts of (2R,3S)-β-hydroxyaspartate and BHAD to generate the desired concentrations of iminosuccinate at the onset of the reaction. Kinetics for NADH and NADPH were measured with 2 mM (2R,3S)-β-hydroxyaspartate, 214 nM BHAD, 28 nM ISRed, and varying amounts of the respective cofactor.

Data set [4] concerns the target T4, aspartate-glyoxylate aminotransferase (AGAT) (Paracoccus denitrificans, UniProt A1B8Z3).
T4 construct: His-tag (N); made in house; host or cells: E. coli BL21 AI
T4 sequence (A1B8Z3 1-396): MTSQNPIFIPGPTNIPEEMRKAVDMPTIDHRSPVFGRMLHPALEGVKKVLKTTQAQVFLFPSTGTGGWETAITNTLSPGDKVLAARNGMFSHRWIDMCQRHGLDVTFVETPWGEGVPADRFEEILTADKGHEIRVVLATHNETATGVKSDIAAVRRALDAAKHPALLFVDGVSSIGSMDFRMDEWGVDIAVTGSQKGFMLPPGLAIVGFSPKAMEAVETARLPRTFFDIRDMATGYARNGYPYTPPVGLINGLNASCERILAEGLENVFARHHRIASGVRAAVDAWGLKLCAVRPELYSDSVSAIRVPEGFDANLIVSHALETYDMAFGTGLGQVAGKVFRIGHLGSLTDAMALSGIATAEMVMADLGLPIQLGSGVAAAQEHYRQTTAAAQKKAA
As to the kind of experiment: Enzyme assay, kinetic parameters of AGAT. In kind it is biochemical, Paracoccus denitrificans DSM 413. The conditions noted are these: 30° C., pH 7.5, co-substrate fixed (20 mM L-aspartate, 5 mM glyoxylate, 20 mM oxaloacetate or 30 mM glycine); for Km: read-out: app. KM. The protocol: as §1
(§2) The enzyme assay to determine the kinetic parameters of AGAT with glyoxylate and L-aspartate as substrates was performed at 30° C. in a total volume of 300 μl. The reaction mixture contained 100 mM potassium phosphate buffer pH 7.5, 0.1 mM PLP, 0.2 mM NADH, varying amounts of the respective substrates, and 32 nM AGAT. Mdh was added in excess as coupling enzyme to convert oxaloacetate into malate. Kinetics for glyoxylate were measured with 20 mM L-aspartate; kinetics for L-aspartate were measured with 5 mM glyoxylate. To determine the kinetic parameters with oxaloacetate and glycine as substrates, the same assay mixture was used and GhrA was added in excess as coupling enzyme to convert glyoxylate into glycolate. […] To determine the kinetic parameters with L-serine or L-glutamate and glyoxylate as substrates, the same assay mixture was used and BHAD, BHAA, and Mdh were added in excess as coupling enzymes. Kinetics for L-serine and L-glutamate were measured with 5 mM glyoxylate.

Data set [5] concerns Pbhc-BhcR complex. The data set can be described thus: Electrophoretic mobility shift assay, effect of glyoxylate on complex formation. The class given is binding, P. denitrificans DSM 413. The conditions noted are these: increasing concentrations of glyoxylate (0.01-1 mM), EMSA, FIG. 5. From the text: Fluorescently labeled DNA fragments for electrophoretic mobility shift assays (EMSA) were generated by PCR from genomic DNA of P. denitrificans DSM 413. For the Pbhc regulatory region, primers Pbhc_fw and Pbhc_rev-dye were used to generate a 238-bp fragment containing the putative Pbhc promoter. The primers AGAT-Fw and AGAT_rev-dye were used to generate a 255-bp fragment containing a fragment of the AGAT gene as negative controle. Pbhc rev dye and AGAT rev dye were 5′-labelled with the Dyomics 781 fluorescent dye (Microsynth AG, Balgach, Switzerland). Binding reactions between the DNA fragments (0.025 pmol), various amounts of the purified protein BhcR (400x/2,000x/4,000x/10,000x/20,000x/40,000x molar excess), and various concentrations of glyoxylate (0.01/0.05/0.1/0.2/0.5/1 mM final concentration) were performed in buffer A (20 mM potassium phosphate pH 7.0, 1 mM DTT, 5 mM MgCl2, 50 mM KCl, 15 μg mL^−1 bovine serum albumin, 50 μg mL^−1 herring sperm DNA, 5% v/v glycerol, 0.1% Tween20) in a total volume of 20 μL. After incubation of the reaction mixtures at 37° C. for 20 min, the samples were loaded onto a native 5% polyacrylamide gel and electrophoretically separated at 110 V for 60 min. BhcR:DNA-interactions were detected using an Odyssey FC Imaging System (LI-COR Biosciences, Lincoln, USA).
Background: In EMSA bound probe runs differently from free probe, usually more slowly.

The subject of data set [6] is expression levels of enzymes of the BHAP. As to the kind of experiment: Whole-cell shotgun proteomics, glycolate-grown vs. acetate-grown cells. In kind it is cell-based, P. denitrificans. The conditions noted are these: cells grown on 60 mM glycolate compared to 60 mM acetate, FIG. 4. The protocol: To acquire the proteome of P. denitrificans growing on different carbon sources, 20 mL cultures were grown to mid-exponential phase (OD600 ˜0.5) in minimal medium supplemented with 60 mM acetate or 60 mM glycolate. 4 replicate cultures were grown for each carbon source. Main cultures were inoculated from precultures grown in the same medium in a 1:1,000 dilution. Cultures were harvested by centrifugation at 4,000× g and 4° C. for 15 min. Supernatant was discarded and pellets were washed in 40 mL phosphate buffered saline (PBS; 137 mM NaCl, 2.7 mM KCl, 10 mM Na2HPO4, 1.8 mM KH2PO4, pH 7.4). […] Cell pellets in Eppendorf tubes were snap-frozen in liquid nitrogen and stored at −80° C. until they were used for the preparation of samples for LC-MS analysis and label-free quantification.
For whole cell lysis, cell pellets were first resuspended in 200 μL NH4HCO3 (100 mM supplemented with 5% SDS). […] Protein concentration in samples was determined via Pierce™ BCA assay (Thermo Scientific). […] Peptide mixes were recovered in 2% DMSO and then in 0.5% trifluoracetic acid (TFA) and analyzed via LC-MS on an electrospray ion source-connected Thermo QExactive Plus mass spectrometer (Thermo Scientific). […] Label-free data quantification was performed according to (Nature 2011, 473, 337; Proteomics 2013, 13, 2567; and J Proteome Res 2015, 14, 4472). […]

Substrate in data set [7]: O=C(O)CC(=O)C(=O)O
The data set can be described thus: Enzyme assay, kinetic parameters of AGAT. The conditions noted are these: other: enzyme AGAT, 30° C., pH 7.5, co-substrate fixed (20 mM L-aspartate, 5 mM glyoxylate, 20 mM oxaloacetate or 30 mM glycine). The class given is biochemical, Paracoccus denitrificans DSM 413. The protocol: as §1, §2

Substrate in data set [8]: N[C@@H](CO)C(=O)O
As to the kind of experiment: Enzyme assay, kinetic parameters of AGAT. To be noted: other: enzyme AGAT, 30° C., pH 7.5, co-substrate fixed (20 mM L-aspartate, 5 mM glyoxylate, 20 mM oxaloacetate or 30 mM glycine). In kind it is biochemical, Paracoccus denitrificans DSM 413. The protocol: as §1, §2

Substrate in data set [9]: O=CC(=O)O
The data set can be described thus: Enzyme assay, kinetic parameters of AGAT. The class given is biochemical, Paracoccus denitrificans DSM 413. The conditions noted are these: other: enzyme AGAT, 30° C., pH 7.5, co-substrate fixed (20 mM L-aspartate, 5 mM glyoxylate, 20 mM oxaloacetate or 30 mM glycine). The protocol:
as §1, §2

Substrate in data set [10]: NCC(=O)O
As to the kind of experiment: purified protein, by the assay type. To be noted: other: enzyme AGAT, 30° C., pH 7.5, co-substrate fixed (20 mM L-aspartate, 5 mM glyoxylate, 20 mM oxaloacetate or 30 mM glycine).

Regarding `N[C@@H](C(=O)O)[C@H](O)C(=O)O` [(2R,3S)-β-hydroxyaspartate], the app. kcat in data set [1] was 33.11 ± 1.29 s⁻¹; in [2] it was 35.01 ± 0.82 s⁻¹. Besides, the results for the Km in data set [1] (read-out: app. KM) and in data set [2] (read-out: app. KM) were 280 ± 30 µM and 200 ± 20 µM, respectively.
As to `N=C(CC(=O)O)C(=O)O` [Iminosuccinate], in data set [3], the Km amounted to 88 ± 10 µM. Further, the app. kcat in data set [3] (pH 7.5, iminosuccinate generated from (2R,3S)-β-hydroxyaspartate by BHAD) worked out at 201.04 ± 10.20 s⁻¹.
For the molecule `N[C@@H](CC(=O)O)C(=O)O` [L-Aspartate], in data set [4], the app. kcat was 56.36 ± 0.73 s⁻¹ and the Michaelis-Menten constant (Km) is 2510 ± 100 µM.
For `O=CC(=O)O` [Glyoxylate], in [5], the “effect on binding of BHAR to the promoter region” value is listed as “binding was decreased”.
For the molecule `NC(=O)C1=CN([C@@H]2O[C@H](COP(=O)(O)OP(=O)(O)OC[C@H]3O[C@@H](n4cnc5c(N)ncnc54)[C@H](O)[C@@H]3O)[C@@H](O)[C@H]2O)C=CC1` [NADH], the Michaelis constant (Km) in data set [3] amounted to 23 ± 3 µM.
For `N[C@@H](CCC(=O)O)C(=O)O` [L-Glutamate], in data set [4], the app. kcat was 5.03 ± 0.26 s⁻¹ and the Michaelis-Menten constant (Km) is 20600 ± 2330 µM.
`O=C(O)CO` [glycolate]: the “expression of all four enzymes of the BHAP” value in [6] is listed as “strongly increased expression”.
For the molecule NADPH, the Km in [3] amounted to 330 ± 50 µM.

B1: aspartate-glyoxylate aminotransferase (AGAT) (Paracoccus denitrificans PD1222) (protein)
chain: T4 sequence (A1B8Z3 1-396)
notes: His-tag (N); made in house; host or cells: E. coli BL21 AI
For B1, the Michaelis-Menten constant (Km) in data set [7] worked out at 2900 ± 270 µM; in [8], 2100 ± 240 µM; in data set [9], 430 ± 20 µM; in data set [10], 9520 ± 400 µM. The kcat was 0.76 ± 0.02 s⁻¹ in data set [7], 8.82 ± 0.31 s⁻¹ in data set [8], 58.1 ± 0.82 s⁻¹ in [9] and 0.76 s⁻¹ in [10]. For the same molecule, the kcat/Km in data set [7] came out at 262 M⁻¹ s⁻¹; in data set [8], 4200 M⁻¹ s⁻¹; in data set [9], 134000 M⁻¹ s⁻¹; in data set [10], 79.7 M⁻¹ s⁻¹.
